# Assay results published in US20090011410A1, “METHOD FOR TAILORING ADMINISTRATION OF DRUGS BY QUANTITATION OF MRNA” (priority 2004, published 2009).
# Experiments:
# IL-2 mRNA = experiment: PHA-P-induced leukocyte IL-2 mRNA expression in heparinized whole blood of healthy adults; format: cell-based, human
# Excerpt: Blood was obtained from healthy adults and from patients with psoriasis (4), aplastic anemia (1), nephrotic syndrome (1), and bone marrow transplantation (2). At the time of blood draw, one EDTA tube was sent to clinical laboratory for the measurement of leukocyte counts, and one heparin tube was stored on ice. […] Fifty μL each of blood sample was applied to three different wells of filterplates (triplicate from the beginning), and leukocytes were collected on the membrane by centrifugation at 800×g for 2 min. After washing each well with 300 μL phosphate buffered saline (PBS) once by centrifugation, the lysis buffer described above was applied to each well and incubated at 37° C. for 10 min to release mRNA from trapped leukocytes. The lysate was then transferred to oligo-(dT)-immobilized microplates (GenePlate, RNAture, Irvine, Calif.) by centrifugation at 2000× g for 5 min, and incubated at 4° C. overnight for hybridization. After washing each well with 100 μL lysis buffer 3 times followed by 150 μL wash buffer (10 mM Tris, pH 7.4, 1 mM EDTA, pH 8.0, and 0.5 M NaCl) 3 times, cDNA was synthesized in each well by adding buffer, nucleotides, a cocktail of specific primers, RNasin, and MMLV reverse transcriptase (Promega, Madison, Wis.), and incubated at 37° C. for 2 hours. […]
# lymphocyte blastogenesis = conditions: induction of lymphocyte blastogenesis, activity declined at higher doses; cited from earlier work
substance,measurement,setting,value
phytohemagglutinin-P [PHA-P],PHA-P concentration from which IL-2 mRNA increased,IL-2 mRNA; heparinized whole blood (FIG. 18),≥ 5 µg/mL
same,PHA-P concentration over which IL-2 mRNA reached a plateau,"IL-2 mRNA; heparinized whole blood (FIG. 18, 19)",over 40 μg/mL
same,PHA-P concentration of maximal action,lymphocyte blastogenesis,10 to 20 µg/mL
